Measured values taken from the supplement of paper PMC10307832.

Columns and labels:
Experiment in all cases: relative viability (nuclei count vs DMSO), 5 days (fraction); higher = more cells survive
[1] = compound: COc1cccc2cc(-c3nc([C@H]4CC[C@H](C(=O)O)CC4)n4ncnc(N)c34)[nH]c12 [OSI-027] + CCNC(=O)c1noc(-c2cc(C(C)C)c(O)cc2O)c1-c1ccc(CN2CCOCC2)cc1 [Luminespib] (partner 0.01 µM)
Procedure, shortened: (§1)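 Relative viability equals treated-well nuclei counts divided by vehicle-well nuclei counts. Counts came from 4× images of lung cancer cell lines grown in 1536-well plates for 5 days after pin-tool dosing on the day after seeding. Dosing used one drug alone or a fixed anchor-drug dose plus five library-drug doses (not always all listed) in √10 steps, and values are medians of duplicate plates.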

[2] = compound: COc1cccc2cc(-c3nc([C@H]4CC[C@H](C(=O)O)CC4)n4ncnc(N)c34)[nH]c12 [OSI-027] + CC(=O)Nc1cccc(-n2c(=O)n(C3CC3)c(=O)c3c(Nc4ccc(I)cc4F)n(C)c(=O)c(C)c32)c1 [Trametinib] (partner 0.02 µM)
Procedure, shortened: as §1

[3] = compound: COc1cccc2cc(-c3nc([C@H]4CC[C@H](C(=O)O)CC4)n4ncnc(N)c34)[nH]c12 [OSI-027] + NC(=O)Nc1cc(-c2cccc(F)c2)sc1C(=O)N[C@H]1CCCNC1 [AZD7762] (partner 0.2 µM)
Procedure, shortened: as §1

[4] = compound: CCCS(=O)(=O)Nc1ccc(F)c(C(=O)c2c[nH]c3ncc(-c4ccc(Cl)cc4)cc23)c1F [Vemurafenib] + COc1cc2c(Oc3ccc(NC(=O)C4(C(=O)Nc5ccc(F)cc5)CC4)cc3F)ccnc2cc1OCCCN1CCOCC1 [Foretinib] (partner 0.25 µM)
Procedure, shortened: as §1

Cell Line	relative viability ([1]; first compound 0.01 µM)	relative viability ([1]; first compound 0.03162 µM)	relative viability ([1]; first compound 0.1 µM)	relative viability ([1]; first compound 0.3162 µM)	relative viability ([1]; first compound 1 µM)	relative viability ([2]; first compound 0.01 µM)	relative viability ([2]; first compound 0.03162 µM)	relative viability ([2]; first compound 0.1 µM)	relative viability ([2]; first compound 0.3162 µM)	relative viability ([2]; first compound 1 µM)	relative viability ([3]; first compound 0.01 µM)	relative viability ([3]; first compound 0.03162 µM)	relative viability ([3]; first compound 0.1 µM)	relative viability ([3]; first compound 0.3162 µM)	relative viability ([3]; first compound 1 µM)	relative viability ([4]; first compound 0.03162 µM)	relative viability ([4]; first compound 0.3162 µM)	relative viability ([4]; first compound 1 µM)	relative viability ([4]; first compound 0.1 µM)
PC-3 [JPC-3]	0.839	0.553	0.661	0.598	0.332	0.616	0.651	0.599	0.603	0.437	0.778	0.703	0.521	0.42	0.505	0.911	1.05	1.13	–
NCI-H1648	–	–	–	–	–	0.481	0.449	–	0.49	0.321	0.813	0.572	–	0.705	0.667	–	–	–	–
NCI-H1651	0.866	0.691	1.08	0.79	0.725	0.829	0.736	0.838	0.805	0.607	0.471	0.415	0.425	0.465	0.417	0.647	0.88	0.789	0.742
NCI-H596	0.96	0.908	0.988	0.851	0.574	0.738	0.792	0.914	0.758	0.538	1.14	1.08	1.08	1.06	0.943	0.921	0.695	0.922	0.643
HARA	0.683	0.839	0.706	0.449	0.22	0.719	0.616	0.556	0.398	0.386	0.27	0.301	0.36	0.419	0.365	0.858	0.945	0.559	0.634
NCI-H727	0.444	0.328	0.381	0.318	0.479	0.346	0.412	0.349	0.387	0.395	0.557	0.568	0.41	0.576	0.546	0.883	1.31	0.969	0.768
Calu-6	–	–	–	–	–	–	–	–	–	–	–	–	–	–	–	0.841	0.885	0.757	0.855
NCI-H1993	0.815	0.795	0.71	0.498	0.548	0.474	0.548	0.523	0.412	0.505	0.777	0.728	0.606	0.542	0.416	0.793	0.98	0.823	–
HCC-366	–	–	–	–	–	0.333	0.433	0.454	0.282	0.195	0.393	0.325	0.216	0.285	0.217	0.988	1.01	1	0.922
IA-LM	–	–	–	–	–	–	–	–	–	–	–	–	–	–	–	1.16	1.08	0.981	1.26
EPLC-272H	0.38	0.267	0.147	0.2	0.228	0.293	0.278	0.254	0.236	0.239	0.262	0.212	0.162	0.0961	0.124	0.614	0.873	0.685	0.435
